5 compounds from paper PMC9901219 (European Journal of Medicinal Chemistry, 2023) can be followed below.

One series addresses T1, Human Calpain 1 (Homo sapiens, UniProt P07384).
T1 sequence (P07384 1-714): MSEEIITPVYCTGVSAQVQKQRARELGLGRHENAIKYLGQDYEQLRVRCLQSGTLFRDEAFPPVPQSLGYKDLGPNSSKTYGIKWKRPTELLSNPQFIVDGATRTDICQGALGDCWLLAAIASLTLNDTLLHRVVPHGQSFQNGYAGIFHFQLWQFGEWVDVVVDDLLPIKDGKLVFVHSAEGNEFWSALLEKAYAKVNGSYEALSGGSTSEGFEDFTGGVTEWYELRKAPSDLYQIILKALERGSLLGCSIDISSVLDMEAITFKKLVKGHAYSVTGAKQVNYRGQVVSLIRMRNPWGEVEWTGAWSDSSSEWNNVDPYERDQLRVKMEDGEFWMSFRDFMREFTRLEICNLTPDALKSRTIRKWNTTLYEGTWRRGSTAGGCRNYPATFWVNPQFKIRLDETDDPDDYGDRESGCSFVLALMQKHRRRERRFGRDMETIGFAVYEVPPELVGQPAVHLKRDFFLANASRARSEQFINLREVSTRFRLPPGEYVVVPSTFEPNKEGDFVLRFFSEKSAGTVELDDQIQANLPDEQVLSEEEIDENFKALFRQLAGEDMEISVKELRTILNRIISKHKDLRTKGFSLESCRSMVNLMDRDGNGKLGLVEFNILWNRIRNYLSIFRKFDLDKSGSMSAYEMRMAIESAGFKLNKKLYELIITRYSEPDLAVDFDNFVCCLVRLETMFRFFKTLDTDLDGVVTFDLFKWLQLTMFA
T1 sequence (P04632 1-268 partner): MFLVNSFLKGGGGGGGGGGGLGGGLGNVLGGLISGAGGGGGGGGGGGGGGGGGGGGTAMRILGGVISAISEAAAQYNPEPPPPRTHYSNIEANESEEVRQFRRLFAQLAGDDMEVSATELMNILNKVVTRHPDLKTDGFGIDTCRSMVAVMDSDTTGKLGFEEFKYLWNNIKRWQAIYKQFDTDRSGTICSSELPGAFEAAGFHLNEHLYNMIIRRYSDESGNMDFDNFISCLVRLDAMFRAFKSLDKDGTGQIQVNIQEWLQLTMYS
Briefly: Calpain assay. Type of series: biochemical.

The next series addresses Cathepsin L (Homo sapiens, UniProt P07711). Format: biochemical. Particulars: calpain 1 and cathepsin L versus SARS-CoV-2 3CLpro.
Series [1] concerns the target T2, SARS-CoV-2 3CLpro (Severe acute respiratory syndrome coronavirus 2, UniProt P0DTD1). Type of series: binding.
Series [2] concerns the target T2, SARS-CoV-2 3CLpro. Format: biochemical.
Series [3] concerns the target T2, SARS-CoV-2 3CLpro. Kind of series: biochemical.
Series [4] in a line: Stability of compound in enzymatic assay buffer with GSH. Type of series: physicochemical.

Chain of Cathepsin L (P07711 114-333): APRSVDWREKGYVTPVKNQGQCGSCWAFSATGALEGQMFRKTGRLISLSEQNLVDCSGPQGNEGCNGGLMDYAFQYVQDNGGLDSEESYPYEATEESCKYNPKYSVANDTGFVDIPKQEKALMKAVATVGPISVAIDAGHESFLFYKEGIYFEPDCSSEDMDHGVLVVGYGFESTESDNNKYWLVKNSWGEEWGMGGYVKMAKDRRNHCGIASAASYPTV

Compound `Cc1cccc2nc(CSC(=S)NCc3cccnc3)cn12` [Compound 1, (5-methylimidazo[1,2-a]pyridin-2-yl)methyl (pyridin-3-ylmethyl)carbamodithioate] yielded a 50% inhibitory concentration (IC50) against Human Calpain 1 above 300000 nM. The “Human Calpain 1 pIC50 ± SD” value at Human Calpain 1 (GSH 2 mM, pre-incubation of 30 min) is recorded as above 3.52. The “selectivity over two human cysteine proteases” value on Cathepsin L is “more than 80 fold”. Also, the “Thermal shift ΔTm of SARS-CoV-2 3CLpro with GSH” value on SARS-CoV-2 3CLpro [1] turned out to be 11.33 °C. In addition, at SARS-CoV-2 3CLpro [2], the “enzyme inhibition after jump dilution” value is reported as “around 80%”, the “enzyme inhibition after jump dilution (words)” value is “no more inhibition” and the “time within which inhibition is reversible” value was at most 2 h. For the same compound, on SARS-CoV-2 3CLpro [3], the “Assay without GSH pIC50 ± SD” value is 7.67 ± 0.30 and the “SARS-CoV-2 (Beta-CoV) 3CLpro pIC50 ± SD” value is 0.021 (7.67 ± 0.30). Also, the IC50 at SARS-CoV-2 3CLpro [3] (SARS-CoV-2 3CLpro IC50) was 1750 nM. Further, the “disappearance of the compound” value in series [4] (100 μM in enzymatic assay buffer, 2 mM GSH, 1.5 h incubation) was “less than 10%”. For the same compound, the “reaction conversion with GSH” value in series [4] (after 90 min, GSH 2 mM) is below 10%.
For the compound `Cc1cccc2nc(CNC(=S)NCc3cccnc3)cn12` [Compound 1A, 1-((5-methylimidazo[1,2-a]pyridin-2-yl)methyl)-3-(pyridin-3-ylmethyl)thiourea], on SARS-CoV-2 3CLpro [3], the “Assay without GSH pIC50 ± SD” value is on record as 4.46 ± 0.19 and the “inhibitory effect on SARS-CoV-2 3CLpro” value was “inactive”.
With `CCSC(=S)NCc1cccnc1` [Compound 1B, Ethyl (pyridin-3-ylmethyl)carbamodithioate], the “fold lower potency compared to compound 1” value on SARS-CoV-2 3CLpro [3] is on record as 8 fold.
With `S=C(NCc1cccnc1)OCc1ccccc1` [Compound 1D, O-benzyl(pyridin-3-ylmethyl)carbamothioate], the “inhibitory effect on SARS-CoV-2 3CLpro” value against SARS-CoV-2 3CLpro [3] is “inactive”.
For the compound `CC(=O)[O-].CC(=O)[O-].[Zn+2]` [zinc acetate, reference compound], at SARS-CoV-2 3CLpro [3], the “inhibitory activity in presence of zinc chelator EDTA” value was “completely loose its inhibitory activity”.

By IC50 is commonly meant the concentration that gives 50% inhibition. A higher IC50 goes with weaker potency.
